Experimental data taken from patent US10940188B2, “Compounds and methods for treatment and prevention of Flavivirus infection” (priority 2016, dated 2021).
Counter-ions that a name gives are not always drawn. Like-named read-outs stand apart in the source and are kept apart here. Numbered stars: 1 amine (or outer) side, 2 acyl side, 3 side chain; on linkers, the order of the positions; unused ones are H or OH. Bridge positions count the residues as written; N and C are the ends. Square brackets hold non-standard residues; d marks the D form. Peptide text beside a SMILES is read from it. I, II: the chains in the order shown. Actinocin(9to1) = Cc1c2oc3c(C)ccc(C(=O)[*:1])c3nc-2c(C(=O)[*:2])c(N)c1=O; NMeV = CN[C@H](C(=O)O)C(C)C; Sar = CNCC(=O)O

How the values were obtained:
[1] = tested on: ZIKV MR766 NS1; experiment: microbe, parasite or virus in culture; assay type: cell-based, Zika virus; settings: read-out: NS1-IC50
Protocol: A one-step NS1 TR-FRET (Time-resolved fluorescence resonance energy transfer) assay for a screen of anti-ZIKV compounds was carried out. Human embryonic kidney cell line HEK293 cells were seeded into 384-well plates and infected with ZIKV MR766 at a MOI of 0.5 for 2 days. The FRET assay was performed with two clones of anti-NS1 antibody (ab) differentially labelled with donor and acceptor fluorophores.

[2] = tested on: HEK293 cells; experiment: Toxicity IC50 (cell-killing activity) of the NS1 TR-FRET screen; assay type: cell-based, human
[3] = Homo sapiens, HEK293, cell-killing activity, read-out: Tox IC50
[4] = HEK293 cells, ZIKV MR766, MOI 0.5, 2 days, virus-inhibiting activity
[5] = cell-killing activity, read-out: Tox IC50

| SMILES | IC50 ([1]; Zika virus, HEK293, 48 h) | IC50 [1, 4] | Tox IC50 ([2]; cell-killing activity) | also measured |
| --- | --- | --- | --- | --- |
| NCC(=O)Nc1ccc(-n2nc(C(F)(F)F)cc2-c2ccc3c(ccc4ccccc43)c2)cc1 [OSU-03012] | 992 nM |  |  | IC50 [2, 3]: 10000 nM |
| Cn1cc(-c2[nH]c3cc(NC(=O)[C@H](N)C4CCCCC4)cc4c3c2C=NNC4=O)cn1 [PF-477736] |  | 489 nM | No |  |
| O=c1[nH]c2ccc(Cl)cc2c(N[C@@H]2CN3CCC2CC3)c1-c1nc2ccccc2[nH]1 [CHIR-124] |  | 405 nM |  | IC50 [2, 5]: 3250 nM |
| C[C@H]1O[C@@H](O[C@H]2[C@@H](O)C[C@H](O[C@H]3[C@@H](O)C[C@H](O[C@H]4CC[C@@]5(C)[C@H](CC[C@@H]6[C@@H]5C[C@@H](O)[C@]5(C)[C@@H](C7=CC(=O)OC7)CC[C@]65O)C4)O[C@@H]3C)O[C@@H]2C)C[C@H](O)[C@@H]1O [Digoxin] | 152 nM |  |  | IC50 [2, 3]: 60000 nM |
| CC(=O)O[C@H]1C(=O)[C@@]2(C)[C@H]([C@H](OC(=O)c3ccccc3)[C@]3(O)C[C@H](OC(=O)[C@H](O)[C@@H](NC(=O)c4ccccc4)c4ccccc4)C(C)=C1C3(C)C)[C@]1(OC(C)=O)CO[C@@H]1C[C@@H]2O [PACLITAXEL] | 89.4 nM |  | No |  |
| Cc1ccc(C(=O)N(CCCN)[C@@H](c2nc3cc(Cl)ccc3c(=O)n2Cc2ccccc2)C(C)C)cc1 [Ispinesib] | 67.4 nM |  |  | IC50 [2, 3]: 37500 nM |
| CC(=O)[C@]1(O)Cc2c(O)c3c(c(O)c2[C@@H](O[C@H]2C[C@H](N)[C@H](O)[C@H](C)O2)C1)C(=O)c1ccccc1C3=O [Idarubicin hydrochloride] | 168 nM |  | No |  |
| CCC1=C[C@@H]2CN(C1)Cc1c([nH]c3ccccc13)[C@@](C(=O)OC)(c1cc3c(cc1OC)N(C)[C@H]1[C@@](O)(C(=O)OC)[C@H](OC(C)=O)[C@]4(CC)C=CCN5CC[C@]31[C@@H]54)C2 [Vinorelbine tartrate] | 270 nM |  | No |  |
| CC[C@@H]1C(=O)N(C)c2cnc(Nc3ccc(C(=O)N[C@H]4CC[C@H](N5CCN(CC6CC6)CC5)CC4)cc3OC)nc2N1C(C)C [Volasertib] | 64.8 nM |  | No |  |
| CC[C@]1(O)C[C@@H]2CN(CCc3c([nH]c4ccccc34)[C@@](C(=O)OC)(c3cc4c(cc3OC)N(C)[C@H]3[C@@](O)(C(N)=O)[C@H](O)[C@]5(CC)C=CCN6CC[C@]43[C@@H]65)C2)C1 [Vindesine sulfate salt] | 664 nM |  | No |  |
| COc1c(C)c2c(c(O)c1C/C=C(\C)CCC(=O)O)C(=O)OC2 [Mycophenolic acid] | 539 nM |  | No |  |
| CC[C@H](CC#N)OC(=O)N[C@@H](C)c1cccc(NC(=O)Nc2ccc(-c3cnco3)c(OC)c2)c1 [AVN-944] | 136 nM |  |  | IC50 ([2]; Homo sapiens, HEK293, read-out: Tox IC50): 20000 nM |
| CC(C)c1nn(-c2c(Cl)cccc2Cl)c2nc(Cc3ccc(OCCO)cc3)[nH]c(=O)c12 [RGB-286147] |  | 268 nM | No |  |
| CC(C)C[C@H](NC(=O)[C@@H](NC(=O)c1cccc(-c2ccccc2)n1)[C@@H](C)O)B(O)O [Delanzomib] | 58.5 nM |  |  | IC50 [2, 3]: 300 nM |
| CN[C@@H]1C[C@H]2O[C@@](C)([C@@H]1OC)n1c3ccccc3c3c4c(c5c6ccccc6n2c5c31)C(=O)N[C@H]4O [7-Hydroxystaurosporine] |  | 760 nM |  | IC50 [2, 5]: 102000 nM |
| OCCCNc1cc(-c2ccnc(Nc3cccc(Cl)c3)n2)ccn1 [CGP-60474] |  | 794 nM |  | IC50 [2, 5]: 60000 nM |
| CC[C@@]1(O)C(=O)OCc2c1cc1n(c2=O)Cc2cc3cc(O)ccc3nc2-1 [10-hydroxycamptothecin] |  | 46.6 nM | No |  |
| CCC[C@H](Nc1nc(-c2ccc(NC(=O)NCC)c(OC)c2)ncc1C)c1cccnc1 [Lexibulin hydrochloride] | 171 nM |  | No |  |
| C[C@@H]1C[C@@H]([C@H](O)CC2CC(=O)NC(=O)C2)C(=O)[C@@H](C)C1 [Cycloheximide] | 287 nM |  | No |  |
| CC(C)C[C@H](NC(=O)CNC(=O)c1cc(Cl)ccc1Cl)B1OC(=O)C(CC(=O)O)(CC(=O)O)O1 [Ixazomib citrate] | 196 nM |  |  | IC50 [2, 3]: 1580 nM |

| SMILES | IC50 ([1]; Zika virus, HEK293, 48 h) | IC50 [1, 4] | Tox IC50 ([2]; cell-killing activity) | also measured |
| --- | --- | --- | --- | --- |
| O=C1c2c(O)ccc(O)c2C(=O)c2c(NCCNCCO)ccc(NCCNCCO)c21 [Mitoxantrone] | 232 nM |  |  | IC50 [2, 3]: 50000 nM |
| C/C=C(/C)C(=O)O[C@H]1C(C)=C2[C@H]([C@@H]1OC(=O)CCCCCCC)[C@@](C)(OC(C)=O)C[C@H](OC(=O)CCC)[C@@]1(O)[C@H]2OC(=O)[C@@]1(C)O [Thapsigargin] | 171 nM |  |  | IC50 [2, 3]: 40000 nM |
| Nc1ccc(-c2ccc3ncc4ccc(=O)n(-c5cccc(C(F)(F)F)c5)c4c3c2)cn1 [Torin-2] |  | 724 nM | No |  |
| COc1c(C)c2c(c(O)c1C/C=C(\C)CCC(=O)OCCN1CCOCC1)C(=O)OC2 [Mycophenolate mofetil] | 529 nM |  | No |  |
| Cn1c2ccccc2c2c3c(c4c5ccccc5n(CCC#N)c4c21)CNC3=O [Go-6976] | 944 nM |  |  | IC50 [2, 3]: 20200 nM |
| COC(=O)[C@]12CCC(C)(C)C[C@H]1[C@H]1C(=O)C=C3[C@@]4(C)C=C(C#N)C(=O)C(C)(C)[C@@H]4CC[C@@]3(C)[C@]1(C)CC2 [Bardoxolone methyl] | 282 nM |  |  | IC50 [2, 3]: 2680 nM |
| CCc1c2c(nc3ccc(O)cc13)-c1cc3c(c(=O)n1C2)COC(=O)[C@]3(O)CC [SN-38] |  | 11.3 nM | No |  |
| CC[C@]1(O)C[C@H]2CN(CCc3c([nH]c4ccccc34)[C@@](C(=O)OC)(c3cc4c(cc3OC)N(C=O)[C@H]3[C@@](O)(C(=O)OC)[C@H](OC(C)=O)[C@]5(CC)C=CCN6CC[C@]43[C@@H]65)C2)C1 [Vincristine sulfate] | 156 nM |  | No |  |
| NC(=O)Nc1cc(-c2cccc(F)c2)sc1C(=O)N[C@H]1CCCNC1 [AZD-7762] | 366 nM |  | No |  |
| C/C=C(\C)C(=O)N[C@@H](c1ccccc1)[C@@H](O)C(=O)O[C@H]1C[C@@]2(O)[C@@H](OC(=O)c3ccccc3)[C@@H]3[C@]4(OC(C)=O)CO[C@@H]4C[C@H](O)[C@@]3(C)C(=O)[C@H](OC(C)=O)C(=C1C)C2(C)C [Cephalomannine] | 221 nM |  | No |  |
| CC[C@@]1(O)C(=O)OCc2c1cc1n(c2=O)Cc2cc3ccccc3nc2-1 [(S)-(+)-Camptothecin] |  | 26.4 nM | No |  |
| CS[C@H]1SC[C@H]2C(=O)N(C)[C@@H](C(C)C)C(=O)OC[C@@H](NC(=O)c3cnc4ccccc4n3)C(=O)N[C@@H](C)C(=O)N(C)[C@@H]1C(=O)N(C)[C@@H](C(C)C)C(=O)OC[C@@H](NC(=O)c1cnc3ccccc3n1)C(=O)N[C@@H](C)C(=O)N2C [Echinomycin] | 17.4 nM |  | No |  |
| CC[C@@]1(O)C(=O)OCc2c1cc1n(c2=O)Cc2cc3c(CN(C)C)c(O)ccc3nc2-1 [Topotecan hydrochloride] | 51.4 nM |  | No |  |
| Cc1c2oc3c(C)ccc(C(=O)N[C@@H]4C(=O)N[C@H](C(C)C)C(=O)N5CCC[C@H]5C(=O)N(C)CC(=O)N(C)[C@@H](C(C)C)C(=O)O[C@@H]4C)c3nc-2c(C(=O)N[C@@H]2C(=O)N[C@H](C(C)C)C(=O)N3CCC[C@H]3C(=O)N(C)CC(=O)N(C)[C@@H](C(C)C)C(=O)O[C@@H]2C)c(N)c1=O [Actinomycin D] (I: T[dV]P[Sar][NMeV] / II: T[dV]P[Sar][NMeV]; ester I:1-I:C, II:1-II:C; linker I:N-II:N via Actinocin(9to1)) |  | 352 nM | No |  |
| CC(C)C[C@H](NC(=O)CNC(=O)c1cc(Cl)ccc1Cl)B(O)O [MLN-2238] | 234 nM |  |  | IC50 [2, 3]: 2130 nM |
| O=c1[nH]c(=O)n([C@H]2C[C@H](O)[C@@H](CO)O2)cc1F [Floxuridine] | 918 nM |  |  | IC50 [2, 3]: 60000 nM |
| CC(C)[C@]12O[C@H]1[C@@H]1O[C@]13[C@]1(O[C@H]1C[C@H]1C4=C(CC[C@@]13C)C(=O)OC4)[C@@H]2O [Triptolide] | 465 nM |  | No |  |
| C[C@]1(CO)CN(c2cc(C(=O)Nc3ccc4c(c3)-c3c(c(C(N)=O)nn3-c3ccc(F)cc3)CC4)c(Cl)cn2)C[C@@]1(C)CO [PF-184] |  | 388 nM | No |  |
| COc1cccc2c1C(=O)c1c(O)c3c(c(O)c1C2=O)C[C@@](O)(C(C)=O)C[C@@H]3O[C@H]1C[C@H](N)[C@H](O)[C@H](C)O1 [Daunorubicin] | 536 nM |  | No |  |
| Cc1ccc([N+](=O)[O-])cc1S(=O)(=O)N(C)/N=C/c1cnc2ccc(Br)cn12 [PIK-75] |  | 616 nM | No |  |
